Molecules are shown by their SMILES. A value given as a limit tells only on which side of the number the result lay.

The target of one assay is T1, full length human TREX1 (Homo sapiens, UniProt Q9NSU2).
T1 construct: N-terminally His-Tev tagged full length human TREX1; made in house; host or cells: E. coli
T1 sequence (Q9NSU2 1-314): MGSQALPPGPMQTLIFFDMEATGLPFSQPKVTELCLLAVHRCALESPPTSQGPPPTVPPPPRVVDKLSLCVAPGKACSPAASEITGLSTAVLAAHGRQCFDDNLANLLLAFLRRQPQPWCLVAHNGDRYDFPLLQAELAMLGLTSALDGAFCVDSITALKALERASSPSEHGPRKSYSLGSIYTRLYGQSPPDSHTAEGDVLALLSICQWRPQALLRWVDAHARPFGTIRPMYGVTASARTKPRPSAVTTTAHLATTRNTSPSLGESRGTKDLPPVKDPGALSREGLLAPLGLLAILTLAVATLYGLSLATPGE
As to the kind of experiment: hTREX1 Biochemical Assay (fluorescence, dsDNA substrate degradation). As to conditions: biochemical, read-out: hTREX1 IC50. The essentials: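 Cleavage of 60 nM TEX615/quencher-labelled dsDNA in pH 7.4 Tris buffer with 5 mM MgCl2, 1.0% DMSO, run 18 hours at 25° C, EDTA-quenched; fluorescence read-out.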

The next assay addresses T2, full length mouse TREX1 (Mus musculus, UniProt Q91XB0).
T2 construct: N-terminally His-Tev tagged full length mouse TREX1; made in house; host or cells: E. coli
T2 sequence (Q91XB0 1-314): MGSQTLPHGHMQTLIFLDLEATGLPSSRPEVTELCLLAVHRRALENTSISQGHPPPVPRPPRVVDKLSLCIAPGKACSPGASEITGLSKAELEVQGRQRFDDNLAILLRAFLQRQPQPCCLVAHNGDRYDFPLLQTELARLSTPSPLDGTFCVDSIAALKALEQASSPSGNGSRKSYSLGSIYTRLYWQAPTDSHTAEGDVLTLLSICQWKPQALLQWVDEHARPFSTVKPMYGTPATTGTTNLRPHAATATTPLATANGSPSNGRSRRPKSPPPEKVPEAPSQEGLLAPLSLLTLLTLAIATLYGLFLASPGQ
As to the kind of experiment: mTREX1 Biochemical Assay (fluorescence, dsDNA substrate degradation). As to conditions: biochemical, read-out: mTREX1 IC50. Put shortly: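 Reaction run 18 h at 25° C. with 60 nM TEX615/quencher-labelled dsDNA and 6 pM mouse TREX1 in Tris buffer (pH 7.4, 5 mM MgCl2, 1.0% DMSO), enzyme having sat 4 h with compound across 10 concentrations. EDTA quench; substrate degradation measured as fluorescence increase.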

Assay [1] addresses T3, human TREX2 (residues M44-A279) (Homo sapiens, UniProt Q9BQ50).
T3 construct: human TREX2 (residues M44-A279, expressed in E. coli); made in house; host or cells: E. coli
T3 sequence (Q9BQ50 44-279 isoform Q9BQ50-1): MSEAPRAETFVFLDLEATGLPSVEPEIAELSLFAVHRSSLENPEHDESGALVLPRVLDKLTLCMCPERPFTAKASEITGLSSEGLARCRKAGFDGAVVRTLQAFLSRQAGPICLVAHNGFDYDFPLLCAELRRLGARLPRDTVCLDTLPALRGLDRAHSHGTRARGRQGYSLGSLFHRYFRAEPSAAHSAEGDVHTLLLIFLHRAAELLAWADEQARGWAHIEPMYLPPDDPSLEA
As to the kind of experiment: hTREX2 Biochemical Assay (fluorescence, dsDNA substrate degradation). To be noted: biochemical selectivity for hTREX1 vs hTREX2. The essentials: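 N-His-Tev E. coli enzyme (50 pM) pre-incubated with compound 4 h at 25 °C, then 60 nM TEX615/quencher dsDNA added; 18 h at 25 °C, pH 7.4 Tris buffer with 5 mM MgCl2, 1.0% DMSO. EDTA-quenched; fluorescence 570 ex/615 em from liberated fluorophore, 10-point dose-response.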

A further assay concerns the target T4, hTREX1 (Homo sapiens, UniProt Q9NSU2).
T4 construct: host or cells: HCT116 dual cells
T4 sequence (Q9NSU2 1-314): T1 sequence (Q9NSU2 1-314)
The assay can be described thus: hTREX1 HCT116 Cell Assay (HCT116 dual cells, Lucia luciferase reporter of Type I interferon induction). As to conditions: TREX1i 4 h before pBR322/BstNI transfection, read after 48 h. The format is cell-based. The essentials: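 HCT116 dual cells carrying an ISRE-type STAT1/STAT2-driven secreted Lucia luciferase reporter were pretreated with TREX1 inhibitor for 4 h (≤0.1% DMSO), then transfected with pBR322/BstNI DNA (100 ng/well, Lipofectamine LTX). Luciferase in medium read after 48 h at 37 °C.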

For `CC(c1nc(C(=O)Nc2cnoc2)c(O)c(=O)n1C)C(c1cnn(C)c1)c1ccc(C(F)(F)F)cc1C#N` (single isomer, unassigned) [Example 30 D1E1], the IC50 – broadly, the concentration needed to halve the response being measured – on full length human TREX1 is less than 1 nM; at full length mouse TREX1, less than 1 nM; against hTREX1, less than 10 nM. For the same compound, in assay [1], the “hTREX1 vs hTREX2 selectivity” value is given as “C (C = >50 fold selective for hTREX1)”.
In the case of `CC(c1nc(C(=O)Nc2cnoc2)c(O)c(=O)n1C)C(c1cnn(CCN(C)C)c1)c1ccccc1C#N` (single isomer, unassigned) [Example 33 D1E1], the IC50 at full length human TREX1 is 1 to 10 nM; on full length mouse TREX1, 1 to 10 nM; at hTREX1 it was more than 100 nM. Moreover, the “hTREX1 vs hTREX2 selectivity” value in assay [1] is on record as “C (C = >50 fold selective for hTREX1)”.
Turning to `CC(c1nc(C(=O)Nc2cnoc2)c(O)c(=O)n1C)C(c1cnn(CCO)c1)c1ccccc1C#N` (single isomer, unassigned) [Example 35 D1E1], the IC50 on full length human TREX1 is less than 1 nM; at full length mouse TREX1 it was 1 to 10 nM; against hTREX1, more than 100 nM. Moreover, in assay [1], the “hTREX1 vs hTREX2 selectivity” value is listed as “C (C = >50 fold selective for hTREX1)”.
Turning to `Cn1cc(C(c2ccccc2C#N)C(c2nc(C(=O)Nc3cnoc3)c(O)c(=O)n2C)C(F)(F)F)cn1` (single isomer, unassigned) [Example 40 D1E2], the figures for the IC50 at full length human TREX1, on full length mouse TREX1 and against hTREX1 were less than 1 nM, 1 to 10 nM and more than 100 nM, respectively. Moreover, the “hTREX1 vs hTREX2 selectivity” value in assay [1] is listed as “B (B = 25 to 50-fold selective for hTREX1)”.
`Cc1nn(C)cc1C(c1ccccc1C#N)C(c1nc(C(=O)Nc2cnoc2)c(O)c(=O)n1C)C(F)(F)F` (single isomer, unassigned) [Example 41 D1E2]: the figures for the IC50 at full length human TREX1, on full length mouse TREX1 and against hTREX1 were less than 1 nM, 1 to 10 nM and less than 10 nM, respectively. In assay [1], the “hTREX1 vs hTREX2 selectivity” value was “C (C = >50 fold selective for hTREX1)”.
`Cc1nn(C)cc1C(c1cc(F)ccc1C#N)C(c1nc(C(=O)Nc2cnoc2)c(O)c(=O)n1C)C(F)(F)F` (single isomer, unassigned) [Example 42 D1E2]: the IC50 at full length human TREX1 was less than 1 nM; at full length mouse TREX1, 1 to 10 nM; at hTREX1, 10 to 100 nM. In addition, the “hTREX1 vs hTREX2 selectivity” value in assay [1] is listed as “C (C = >50 fold selective for hTREX1)”.
In the case of `Cc1ncc(C(c2ccccc2Cl)C(C)c2nc(C(=O)Nc3cnoc3)c(O)c(=O)n2C)cn1` (single isomer, unassigned) [Example 44 D1E2], the IC50 on full length human TREX1 lay in the range of 1 to 10 nM; on full length mouse TREX1 it was 1 to 10 nM; on hTREX1, 10 to 100 nM. Besides, in assay [1], the “hTREX1 vs hTREX2 selectivity” value is listed as “B (B = 25 to 50-fold selective for hTREX1)”.
Turning to `CC(c1nc(C(=O)Nc2cnoc2)c(O)c(=O)n1C)C(c1ccccc1Cl)n1cccn1` (single isomer, unassigned) [Example 45 D1E1], the IC50 at full length human TREX1 is 1 to 10 nM; on full length mouse TREX1, more than 10 nM; at hTREX1 it was more than 100 nM. Besides, the “hTREX1 vs hTREX2 selectivity” value in assay [1] is recorded as “B (B = 25 to 50-fold selective for hTREX1)”.
The matching figures for `Cc1nn(C)cc1C(c1cc(F)ccc1C#N)C(C)c1nc(C(=O)Nc2cnoc2)c(O)c(=O)n1C` (single isomer, unassigned) [Example 57 D1E1]: 1 to 10 nM, more than 10 nM, 10 to 100 nM and “C (C = >50 fold selective for hTREX1)”.
Turning to `CCn1cc(C(c2cc(F)ccc2Cl)C(C)c2nc(C(=O)Nc3cnoc3)c(O)c(=O)n2C)cn1` (single isomer, unassigned) [Example 60 D1E1], the IC50 at full length human TREX1 was less than 1 nM; on full length mouse TREX1 it was 1 to 10 nM; against hTREX1 it was 10 to 100 nM. For the same compound, the “hTREX1 vs hTREX2 selectivity” value in assay [1] is recorded as “B (B = 25 to 50-fold selective for hTREX1)”.
The matching figures for `Cc1cc(C(c2ccccc2C#N)C(C)c2nc(C(=O)Nc3cnoc3)c(O)c(=O)n2C)n(C)n1` (single isomer, unassigned) [Example 63 D1E1]: less than 1 nM, 1 to 10 nM, less than 10 nM and “C (C = >50 fold selective for hTREX1)”.

(Values after US20240246946A1, “MODULATORS OF TREX1” (Constellation Pharmaceuticals, Inc., priority 2021, published 2024).)
